The text below walks through data of ChEMBL document CHEMBL4482314, “Small molecule inhibitors of ghrelin O-acyltransferase” (2012).

Activity calls are given as the source filed them. The calls are words filed in the database; no cut-off is given here. Where a SMILES comes first, the peptide text is derived from it. [ ]: non-standard residue; d: D form. The star is where a group is joined. Octanoyl = CCCCCCCC(=O)*; Dap = NC[C@H](N)C(=O)O

For assay [1], the target named is T1, Membrane-bound ghrelin O-acyltransferase MBOAT4 (Mus musculus) (UniProt P0C7A3).
T1 sequence (whole entry): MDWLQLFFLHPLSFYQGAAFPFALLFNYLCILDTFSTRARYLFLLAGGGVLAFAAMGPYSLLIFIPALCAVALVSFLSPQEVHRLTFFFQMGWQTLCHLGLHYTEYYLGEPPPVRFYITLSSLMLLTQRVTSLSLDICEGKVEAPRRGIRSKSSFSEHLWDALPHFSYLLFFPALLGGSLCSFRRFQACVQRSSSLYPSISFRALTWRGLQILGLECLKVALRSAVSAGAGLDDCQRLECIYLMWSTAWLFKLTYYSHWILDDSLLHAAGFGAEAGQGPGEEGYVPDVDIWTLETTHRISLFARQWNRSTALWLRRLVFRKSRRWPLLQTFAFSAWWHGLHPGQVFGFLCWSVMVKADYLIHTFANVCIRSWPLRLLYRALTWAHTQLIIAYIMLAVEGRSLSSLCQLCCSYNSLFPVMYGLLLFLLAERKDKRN
Nature of the assay: Inhibition of His10-tagged mouse GOAT expressed in baculovirus infected Sf9 cells assessed as reduction in specific acyl transfer from tritiated-octanoyl CoA to recombinant His-tagged pro-ghrelin.

The target in assay [2] is T1, Membrane-bound ghrelin O-acyltransferase MBOAT4 (Mus musculus). Briefly: Inhibition of His10-tagged mouse GOAT expressed in baculovirus infected Sf9 cells assessed as reduction in specific acyl transfer from tritiated-octanoyl CoA to recombinant His-tagged pro-ghrelin at <500 uM.
For assay [3] the target is unchanged. Briefly: Inhibition of His10-tagged mouse GOAT expressed in baculovirus infected Sf9 cells assessed as reduction in specific acyl transfer from tritiated-octanoyl CoA to recombinant His-tagged pro-ghrelin at 500 uM.
Assay [4] has the same target. Briefly: Inhibition of His10-tagged mouse GOAT expressed in baculovirus infected Sf9 cells assessed as reduction in specific acyl transfer from tritiated-octanoyl CoA to recombinant His-tagged pro-ghrelin at 100 uM.
For assay [5], the target named is T2, Membrane-bound ghrelin O-acyltransferase MBOAT4 (Homo sapiens) (UniProt Q96T53).
T2 sequence (whole entry): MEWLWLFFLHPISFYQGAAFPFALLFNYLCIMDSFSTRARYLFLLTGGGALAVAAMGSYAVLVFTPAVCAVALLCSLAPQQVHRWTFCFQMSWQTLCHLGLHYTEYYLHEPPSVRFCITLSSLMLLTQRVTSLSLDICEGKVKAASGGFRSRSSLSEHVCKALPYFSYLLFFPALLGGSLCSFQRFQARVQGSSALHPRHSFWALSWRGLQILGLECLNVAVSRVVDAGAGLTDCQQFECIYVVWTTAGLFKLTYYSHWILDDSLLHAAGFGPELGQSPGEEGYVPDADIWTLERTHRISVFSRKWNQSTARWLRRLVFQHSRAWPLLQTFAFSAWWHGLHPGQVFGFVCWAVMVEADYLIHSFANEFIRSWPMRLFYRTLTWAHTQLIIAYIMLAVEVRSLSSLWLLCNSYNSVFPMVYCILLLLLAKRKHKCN
Nature of the assay: Inhibition of GOAT (unknown origin) expressed in intact rat INS1 cells co-expressing pre-proghrelin incubated for 24 hrs. In kind it is cell-based.

On to `CCCCCCCC(C)(O)C/C=C(/NC(=O)OCc1ccccc1)C(=O)NC(C)C` (configuration not stated), for which the inhibition result in assay [1] is “Active”.
Take `CCCCCCCC(C)(O)/C=C/CNC(=O)OCc1ccccc1` (configuration not stated): the inhibition result in assay [1] is “Active”.
Turning to `CCCCCCCC(C)(O)/C=C/[C@H](NC(=O)OCc1ccccc1)C(=O)NC(C)C` (some centres not stated), the inhibition entry in assay [1] is “Active”.
`CCCCCCCC(O)CC[C@H](NC(=O)C(C)(C)CO)C(=O)N[C@H](COC)Cc1ccccc1` (some centres not stated): the inhibition result in assay [2] and in assay [3] was “Active” each time.
For the compound `CCCCCCCC(=O)CC[C@H](NC(=O)OCc1ccccc1)C(=O)OC`, the inhibition result in assay [4] was “Active”.
With `CCCCCCC[S+]([O-])CC[C@H](NC(=O)OCc1ccccc1)C(=O)OC` (some centres not stated), the inhibition result in assay [1] is “Dose-dependent effect”.
For the compound `CCCCCCCC(O)CC[C@H](NC(=O)C(C)(C)CO)C(=O)OC` (some centres not stated), the inhibition entry in assay [3] is “Active”.
Regarding `CCCCCCCC(C)(O)/C=C/[C@H](NC(=O)C(C)(C)CO)C(=O)OC` (some centres not stated), the inhibition result in assay [1] is “inactive”.
Regarding `CCCCCCCC(C)(O)/C=C/[C@H](NC(=O)OCc1ccccc1)C(=O)OC` (some centres not stated), the inhibition result in assay [1] is “Dose-dependent effect”. The inhibition result in assay [4] and in assay [5] was “Active” each time.
Take `CCCCCCCC(C)(O)/C=C/[C@H](NC(=O)C(C)(C)CO)C(=O)N[C@@H](Cc1ccccc1)C(=O)N[C@@H](CC(C)C)C(N)=O` (some centres not stated): in assay [1], the inhibition entry is “Active”.
Consider `CCCCCCCC(=O)NC[C@H](NC(=O)[C@H](CO)NC(=O)CN)C(=O)N[C@@H](Cc1ccccc1)C(=O)N[C@@H](CC(C)C)C(N)=O` (H-GS[Dap](Octanoyl)FL-NH2), for which the inhibition entry in assay [1] is “Dose-dependent effect”.
Regarding `CCCCCCCC(=O)NC[C@H](NC(=O)OCc1ccccc1)C(=O)OC`, the inhibition result in assay [1] is “inactive”.
`CCCCCCCC(O)CC[C@H](NC(=O)OCc1ccccc1)C(=O)N[C@H](COC)Cc1ccccc1` (some centres not stated): the inhibition result in assay [4] was “Active”.
As for `CCCCCCCC(C)(O)/C=C/[C@@H](NC(=O)OCc1ccccc1)C(=O)OC` (some centres not stated), the inhibition entry in assay [1] and in assay [3] was “Active” throughout.
Consider `CCCCCCCC(O)/C=C/[C@H](NC(=O)OCc1ccccc1)C(=O)OC` (some centres not stated), for which the inhibition entry in assay [2], in assay [4] and in assay [3] was “Active” in each case.
In the case of `CCC(C)(O)/C=C/[C@H](NC(=O)OCc1ccccc1)C(=O)OC` (some centres not stated), the inhibition entry in assay [1] is “inactive”.
